Columns and labels:
[1] = in vivo; settings: ICR, mouse, plasma, po, 30 mg/kg
Description: Half life in ICR mouse plasma at 30 mg/kg, po by LC/MS/MS analysis

[2] = system: T98G; test: cells; format: functional, cell-based; settings: Homo sapiens, 96 h
Description: Cytotoxicity against human T98G cells after 96 hrs by MTT assay

[3] = in vivo; settings: ICR, mouse, plasma, iv, 3 mg/kg
Description: Clearance in ICR mouse plasma at 3 mg/kg, iv by LC/MS/MS analysis

[4] = system: U-251; test: cells; format: functional, cell-based; settings: Homo sapiens, U-251, 96 h
Description: Cytotoxicity against human U251 cells after 96 hrs by MTT assay

[5] = target: T1, Phosphatidylinositol 4,5-bisphosphate 3-kinase catalytic subunit delta isoform (Homo sapiens, UniProt O00329); test: Inhibition of PI3Kdelta (unknown origin) using PIP2 as substrate by ADP-Glo assay
T1 sequence (O00329 whole entry): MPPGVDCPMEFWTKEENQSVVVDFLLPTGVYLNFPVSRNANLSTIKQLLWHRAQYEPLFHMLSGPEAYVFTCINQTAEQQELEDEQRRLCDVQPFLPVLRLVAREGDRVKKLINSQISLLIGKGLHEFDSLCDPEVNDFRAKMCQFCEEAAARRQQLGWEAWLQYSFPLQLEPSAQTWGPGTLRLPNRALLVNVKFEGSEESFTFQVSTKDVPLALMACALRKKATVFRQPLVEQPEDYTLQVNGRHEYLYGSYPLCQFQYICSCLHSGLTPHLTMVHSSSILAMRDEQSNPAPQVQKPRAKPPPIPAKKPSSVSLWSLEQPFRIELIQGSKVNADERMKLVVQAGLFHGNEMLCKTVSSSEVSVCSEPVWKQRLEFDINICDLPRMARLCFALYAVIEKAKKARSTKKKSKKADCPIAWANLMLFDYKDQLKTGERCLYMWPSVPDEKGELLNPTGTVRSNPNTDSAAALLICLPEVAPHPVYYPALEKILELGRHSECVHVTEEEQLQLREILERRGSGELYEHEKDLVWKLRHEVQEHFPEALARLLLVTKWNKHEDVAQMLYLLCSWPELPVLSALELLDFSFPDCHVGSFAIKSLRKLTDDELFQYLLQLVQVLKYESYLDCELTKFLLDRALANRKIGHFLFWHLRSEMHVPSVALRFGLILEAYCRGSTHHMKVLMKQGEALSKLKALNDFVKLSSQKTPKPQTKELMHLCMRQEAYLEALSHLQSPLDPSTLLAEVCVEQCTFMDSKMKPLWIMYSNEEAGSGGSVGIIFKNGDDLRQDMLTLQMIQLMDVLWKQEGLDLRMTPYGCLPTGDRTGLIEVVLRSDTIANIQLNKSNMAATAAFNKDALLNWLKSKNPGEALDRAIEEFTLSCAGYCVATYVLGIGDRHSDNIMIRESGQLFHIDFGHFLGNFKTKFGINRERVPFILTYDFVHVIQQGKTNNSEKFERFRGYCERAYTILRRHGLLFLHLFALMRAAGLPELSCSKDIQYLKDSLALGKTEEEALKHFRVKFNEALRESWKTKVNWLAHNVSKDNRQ

[6] = in vivo; settings: ICR, mouse, plasma, iv, 3 mg/kg; remark: listed apart in the source
Description: Volume of distribution at steady state in ICR mouse plasma at 3 mg/kg, iv by LC/MS/MS analysis

[7] = target: Serine/threonine-protein kinase mTOR (Homo sapiens, UniProt P42345); test: Inhibition of mTOR (unknown origin) using ULight-4E-BP1 peptide as substrate after 30 mins by Lance Ultra assay
[8] = target: Cytochrome P450 2D6 (Homo sapiens, UniProt P10635)
Description: Inhibition of CYP2D6 in human liver microsomes assessed as reduction in dextrophan formation using detromethorphann as substrate after 10 to 20 mins in presence of NADPH by LC-MS/MS analysis

[9] = target: Cytochrome P450 2C9 (Homo sapiens, UniProt P11712)
Description: Inhibition of CYP2C9 in human liver microsomes assessed as reduction in 4-Hydroxydiclofenac formation using diclofenac as substrate after 10 to 20 mins in presence of NADPH by LC-MS/MS analysis

[10] = target: Phosphatidylinositol 4,5-bisphosphate 3-kinase catalytic subunit beta isoform (Homo sapiens, UniProt P42338); test: Inhibition of PI3Kbeta (unknown origin) using PIP2 as substrate by ADP-Glo assay
[11] = system: HGC-27; test: cells; format: functional, cell-based; settings: Homo sapiens, HGC-27, 96 h
Description: Cytotoxicity against human HGC27 cells after 96 hrs by MTT assay

[12] = target: Cytochrome P450 2C19 (Homo sapiens, UniProt P33261)
Description: Inhibition of CYP2C19 in human liver microsomes assessed as reduction in 4-Hydroxymephenytoinn formation using mephenytoin as substrate after 10 to 20 mins in presence of NADPH by LC-MS/MS analysis

[13] = in vivo; settings: ICR, mouse, plasma, iv, 3 mg/kg; remark: listed apart in the source
Description: Half life in ICR mouse plasma at 3 mg/kg, iv by LC/MS/MS analysis

[14] = target: Cytochrome P450 3A4 (Homo sapiens, UniProt P08684)
Description: Inhibition of CYP3A4 in human liver microsomes assessed as reduction in 1-Hydroxymidazolam formation using midazolam as substrate after 10 to 20 mins in presence of NADPH by LC-MS/MS analysis

[15] = system: SH-SY5Y; test: cells; format: functional, cell-based; settings: Homo sapiens, 96 h
Description: Cytotoxicity against human SH-SY5Y cells after 96 hrs by MTT assay

[16] = in vivo; settings: ICR, mouse, plasma, iv, 3 mg/kg; remark: listed apart in the source
[17] = mouse, in vivo, po, 30 mg/kg
[18] = target: Phosphatidylinositol 4,5-bisphosphate 3-kinase catalytic subunit alpha isoform (Homo sapiens, UniProt P42336); test: Inhibition of PI3Kalpha (unknown origin) using PIP2 as substrate by Kinase-Glo assay
[19] = system: A549; test: cells; format: functional, cell-based; settings: Homo sapiens, A549, 96 h
Description: Cytotoxicity against human A549 cells after 96 hrs by MTT assay

[20] = system: PC-3; test: cells; format: functional, cell-based; settings: Homo sapiens, PC-3, 96 h
Description: Cytotoxicity against human PC3 cells after 96 hrs by MTT assay

[21] = target: Voltage-gated inwardly rectifying potassium channel KCNH2 (Homo sapiens, UniProt Q12809)
Description: Inhibition of human ERG expressed in CHO cell membranes by patch clamp method

[22] = system: MDA-MB-231; test: cells; format: functional, cell-based; settings: Homo sapiens, MDA-MB-231, 96 h
Description: Cytotoxicity against human MDA-MB-231 cells after 96 hrs by MTT assay

[23] = system: U-87 MG; test: cells; format: functional, cell-based, U-87MG ATCC; settings: Homo sapiens, 96 h
Description: Cytotoxicity against human U87MG cells after 96 hrs by MTT assay

[24] = in vivo; settings: ICR, mouse, plasma, po, 30 mg/kg; remark: listed apart in the source
[25] = in vivo; settings: ICR, mouse, plasma, po, 30 mg/kg; remark: listed apart in the source
[26] = target: Phosphatidylinositol 4,5-bisphosphate 3-kinase catalytic subunit gamma isoform (Homo sapiens, UniProt P48736); test: Inhibition of PI3Kgamma (unknown origin) using PIP2 as substrate by ADP-Glo assay
[27] = in vivo; settings: ICR, mouse, plasma, iv, 3 mg/kg; remark: listed apart in the source
[28] = in vivo; settings: ICR, mouse, plasma, po, 30 mg/kg; remark: listed apart in the source

Chain of Phosphatidylinositol 4,5-bisphosphate 3-kinase catalytic subunit gamma isoform (P48736 whole entry, canonical isoform): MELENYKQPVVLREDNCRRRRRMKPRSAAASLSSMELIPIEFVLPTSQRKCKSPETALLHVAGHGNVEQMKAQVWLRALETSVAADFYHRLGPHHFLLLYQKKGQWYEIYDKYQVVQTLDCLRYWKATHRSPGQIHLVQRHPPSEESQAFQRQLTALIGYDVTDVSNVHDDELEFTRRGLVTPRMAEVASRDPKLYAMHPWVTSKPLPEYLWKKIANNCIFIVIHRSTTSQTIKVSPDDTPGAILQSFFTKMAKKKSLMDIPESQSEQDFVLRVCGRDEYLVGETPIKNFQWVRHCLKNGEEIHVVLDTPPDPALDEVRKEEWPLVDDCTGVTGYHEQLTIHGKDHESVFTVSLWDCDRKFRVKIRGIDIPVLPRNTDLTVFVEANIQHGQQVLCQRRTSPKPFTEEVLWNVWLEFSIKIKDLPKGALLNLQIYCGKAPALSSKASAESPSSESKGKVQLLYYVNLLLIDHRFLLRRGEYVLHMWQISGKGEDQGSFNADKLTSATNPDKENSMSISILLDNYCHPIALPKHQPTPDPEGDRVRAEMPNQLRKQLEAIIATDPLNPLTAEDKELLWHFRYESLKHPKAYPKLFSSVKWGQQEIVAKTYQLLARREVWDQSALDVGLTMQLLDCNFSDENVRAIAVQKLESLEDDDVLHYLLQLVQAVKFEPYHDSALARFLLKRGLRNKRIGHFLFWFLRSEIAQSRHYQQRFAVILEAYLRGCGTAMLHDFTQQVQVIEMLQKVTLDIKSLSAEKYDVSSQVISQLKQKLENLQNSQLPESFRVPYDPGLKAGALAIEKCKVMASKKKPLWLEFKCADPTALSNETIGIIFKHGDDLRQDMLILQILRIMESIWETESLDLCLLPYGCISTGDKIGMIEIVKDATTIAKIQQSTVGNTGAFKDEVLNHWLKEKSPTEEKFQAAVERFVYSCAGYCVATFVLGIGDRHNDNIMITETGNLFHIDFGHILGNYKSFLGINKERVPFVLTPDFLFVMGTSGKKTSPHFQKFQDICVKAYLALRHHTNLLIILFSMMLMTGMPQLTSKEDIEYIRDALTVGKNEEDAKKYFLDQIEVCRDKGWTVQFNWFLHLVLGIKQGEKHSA
Chain of Cytochrome P450 3A4 (P08684 whole entry): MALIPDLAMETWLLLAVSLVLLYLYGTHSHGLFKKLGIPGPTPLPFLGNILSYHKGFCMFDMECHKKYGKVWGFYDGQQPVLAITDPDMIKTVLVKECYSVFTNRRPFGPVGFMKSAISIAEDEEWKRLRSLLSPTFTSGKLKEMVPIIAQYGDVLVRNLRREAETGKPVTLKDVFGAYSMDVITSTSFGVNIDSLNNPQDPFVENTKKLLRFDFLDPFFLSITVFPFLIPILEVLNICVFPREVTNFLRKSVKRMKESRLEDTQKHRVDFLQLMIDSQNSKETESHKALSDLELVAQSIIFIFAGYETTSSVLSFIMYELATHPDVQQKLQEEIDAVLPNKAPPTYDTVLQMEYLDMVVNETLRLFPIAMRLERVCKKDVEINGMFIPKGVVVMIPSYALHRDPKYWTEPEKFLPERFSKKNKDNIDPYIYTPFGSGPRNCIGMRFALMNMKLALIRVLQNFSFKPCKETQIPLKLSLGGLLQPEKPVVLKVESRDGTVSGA
Chain of Cytochrome P450 2D6 (P10635 whole entry): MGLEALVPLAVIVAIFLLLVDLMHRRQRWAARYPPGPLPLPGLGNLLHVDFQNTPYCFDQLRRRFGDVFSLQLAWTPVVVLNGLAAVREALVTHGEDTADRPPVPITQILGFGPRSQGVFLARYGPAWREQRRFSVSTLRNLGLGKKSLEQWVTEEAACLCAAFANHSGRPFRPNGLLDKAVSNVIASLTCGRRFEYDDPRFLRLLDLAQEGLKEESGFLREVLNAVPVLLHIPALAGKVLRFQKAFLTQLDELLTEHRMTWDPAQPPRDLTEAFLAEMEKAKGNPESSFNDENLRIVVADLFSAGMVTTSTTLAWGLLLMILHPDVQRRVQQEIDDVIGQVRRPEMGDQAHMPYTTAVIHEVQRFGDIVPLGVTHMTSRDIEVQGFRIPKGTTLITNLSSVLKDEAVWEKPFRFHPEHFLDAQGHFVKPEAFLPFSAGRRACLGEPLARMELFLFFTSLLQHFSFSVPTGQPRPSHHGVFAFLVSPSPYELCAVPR
Chain of Cytochrome P450 2C9 (P11712 whole entry, canonical isoform): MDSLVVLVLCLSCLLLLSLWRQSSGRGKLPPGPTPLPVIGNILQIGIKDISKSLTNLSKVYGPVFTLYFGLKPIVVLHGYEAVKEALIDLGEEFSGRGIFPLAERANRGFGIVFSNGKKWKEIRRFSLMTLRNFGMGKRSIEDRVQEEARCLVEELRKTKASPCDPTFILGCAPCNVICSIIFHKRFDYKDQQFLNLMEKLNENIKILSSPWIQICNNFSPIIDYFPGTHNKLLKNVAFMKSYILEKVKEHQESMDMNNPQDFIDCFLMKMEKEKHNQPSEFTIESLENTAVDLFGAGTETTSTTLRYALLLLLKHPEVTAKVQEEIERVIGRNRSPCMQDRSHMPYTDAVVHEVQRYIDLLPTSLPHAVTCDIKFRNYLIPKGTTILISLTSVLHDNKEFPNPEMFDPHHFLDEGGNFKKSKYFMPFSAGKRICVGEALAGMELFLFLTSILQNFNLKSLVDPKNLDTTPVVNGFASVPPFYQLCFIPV
Chain of Phosphatidylinositol 4,5-bisphosphate 3-kinase catalytic subunit beta isoform (P42338 whole entry, canonical isoform): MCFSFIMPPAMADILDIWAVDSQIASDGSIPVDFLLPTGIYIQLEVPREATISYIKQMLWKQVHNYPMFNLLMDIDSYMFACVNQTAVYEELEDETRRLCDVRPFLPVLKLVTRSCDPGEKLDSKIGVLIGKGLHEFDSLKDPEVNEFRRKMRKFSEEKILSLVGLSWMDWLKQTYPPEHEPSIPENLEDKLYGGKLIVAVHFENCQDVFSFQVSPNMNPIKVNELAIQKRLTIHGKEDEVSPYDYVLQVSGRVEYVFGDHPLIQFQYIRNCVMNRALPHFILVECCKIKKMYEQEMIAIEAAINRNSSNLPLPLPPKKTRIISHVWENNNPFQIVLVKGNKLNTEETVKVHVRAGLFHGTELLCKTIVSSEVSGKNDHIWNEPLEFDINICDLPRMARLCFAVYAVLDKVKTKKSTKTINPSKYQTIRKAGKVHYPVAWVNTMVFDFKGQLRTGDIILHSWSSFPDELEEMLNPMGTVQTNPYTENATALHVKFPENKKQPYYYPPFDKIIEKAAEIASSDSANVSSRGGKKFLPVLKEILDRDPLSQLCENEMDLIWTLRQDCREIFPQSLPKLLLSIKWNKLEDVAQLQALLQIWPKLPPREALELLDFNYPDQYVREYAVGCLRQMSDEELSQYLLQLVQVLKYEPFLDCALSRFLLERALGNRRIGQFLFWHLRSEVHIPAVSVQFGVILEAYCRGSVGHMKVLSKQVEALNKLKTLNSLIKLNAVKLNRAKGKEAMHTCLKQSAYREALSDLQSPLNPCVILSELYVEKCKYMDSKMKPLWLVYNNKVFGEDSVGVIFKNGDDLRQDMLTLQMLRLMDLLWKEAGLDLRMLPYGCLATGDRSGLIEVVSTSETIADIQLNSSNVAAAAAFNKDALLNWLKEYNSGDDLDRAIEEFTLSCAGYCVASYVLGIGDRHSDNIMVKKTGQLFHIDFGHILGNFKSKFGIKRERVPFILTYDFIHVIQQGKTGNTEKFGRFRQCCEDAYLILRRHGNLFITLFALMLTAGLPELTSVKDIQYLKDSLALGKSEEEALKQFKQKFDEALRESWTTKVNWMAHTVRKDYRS
Chain of Phosphatidylinositol 4,5-bisphosphate 3-kinase catalytic subunit alpha isoform (P42336 whole entry, canonical isoform): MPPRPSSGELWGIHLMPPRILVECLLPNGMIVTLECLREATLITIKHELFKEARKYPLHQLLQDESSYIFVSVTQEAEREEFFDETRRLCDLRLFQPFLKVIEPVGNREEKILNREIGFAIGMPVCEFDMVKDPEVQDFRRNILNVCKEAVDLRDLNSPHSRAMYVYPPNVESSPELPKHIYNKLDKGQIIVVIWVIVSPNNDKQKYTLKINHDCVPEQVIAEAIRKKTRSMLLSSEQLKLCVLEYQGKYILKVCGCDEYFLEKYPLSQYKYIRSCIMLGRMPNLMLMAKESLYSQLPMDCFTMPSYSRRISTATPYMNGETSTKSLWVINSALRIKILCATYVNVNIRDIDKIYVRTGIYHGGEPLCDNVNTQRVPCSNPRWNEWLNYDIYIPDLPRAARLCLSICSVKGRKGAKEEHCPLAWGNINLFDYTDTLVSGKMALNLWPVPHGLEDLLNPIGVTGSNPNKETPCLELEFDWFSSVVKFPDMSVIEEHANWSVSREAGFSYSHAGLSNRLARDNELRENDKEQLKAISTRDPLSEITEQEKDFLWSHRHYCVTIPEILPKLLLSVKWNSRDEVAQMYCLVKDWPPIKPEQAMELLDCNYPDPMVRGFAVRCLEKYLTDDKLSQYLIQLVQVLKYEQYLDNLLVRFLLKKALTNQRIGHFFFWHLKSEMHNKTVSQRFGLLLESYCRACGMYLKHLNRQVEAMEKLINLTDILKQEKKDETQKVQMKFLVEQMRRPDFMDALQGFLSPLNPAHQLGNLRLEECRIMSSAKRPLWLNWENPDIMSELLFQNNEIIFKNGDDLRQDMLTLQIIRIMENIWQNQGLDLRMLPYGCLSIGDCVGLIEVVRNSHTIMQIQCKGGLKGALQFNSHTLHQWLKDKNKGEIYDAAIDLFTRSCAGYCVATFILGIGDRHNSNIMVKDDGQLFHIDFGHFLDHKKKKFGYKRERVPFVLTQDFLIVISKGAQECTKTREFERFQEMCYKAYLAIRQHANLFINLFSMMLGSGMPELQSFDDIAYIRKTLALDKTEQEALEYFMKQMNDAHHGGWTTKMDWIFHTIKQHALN

| Compound | half-life [1] [min] | IC50 [2] [nM] | clearance [3] [mL/min/kg] | IC50 [4] [nM] | IC50 [5] [nM] | Vd [6] [L/kg] | IC50 [7] [nM] | IC50 [8] [nM] | IC50 [9] [nM] | IC50 [10] [nM] | IC50 [11] [nM] | IC50 [12] [nM] | half-life [13] [min] | IC50 [14] [nM] | IC50 [15] [nM] | Cmax [16] [ng/mL] | AUCt [17] [ng·h/g] | IC50 [18] [nM] | IC50 [19] [nM] | IC50 [20] [nM] | other results |
| --- | --- | --- | --- | --- | --- | --- | --- | --- | --- | --- | --- | --- | --- | --- | --- | --- | --- | --- | --- | --- | --- |
| COc1ncc(-c2cc(O[C@@H]3CCOC3)c3nc(N)nc(C)c3c2)cc1NS(=O)(=O)c1ccc(F)cc1F | 281 | 280 | 54.9 | 140 | 0.23 | 2.57 | 9.9 | > 10000 | > 10000 | 0.4 | 56 | > 10000 | 32.4 | > 10000 | 950 | 1580 | 28.6 | 1 | 84 | 280 | IC50 [21]: > 10000 nM; IC50 [22]: 300 nM; IC50 [23]: 260 nM; AUC(0-t) [24]: 8690 ng·h/mL; bioavailability [25]: 96.2%; IC50 [26]: 1.2 nM; Tmax [27]: 1.8 min; Cmax [28]: 8830 ng/mL |
| CNc1nc(C)c2cc(-c3cnc(OC)c(NS(=O)(=O)c4ccc(F)cc4F)c3)cc(OC3CCOCC3)c2n1 | 255 | 390 | 14.3 | 700 | 0.35 | 0.763 | 43 | > 10000 | > 10000 | 1.2 | 16 | > 10000 | 37.2 | > 10000 | 510 | 7720 | 895 | 1.4 | 110 | 380 | IC50 [21]: > 10000 nM; IC50 [22]: 260 nM; IC50 [23]: 250 nM; AUC(0-t) [24]: 15500 ng·h/mL; bioavailability [25]: 44.4%; IC50 [26]: 1.7 nM; Tmax [27]: 3 min; Cmax [28]: 12800 ng/mL |
| CNc1nc(C)c2cc(-c3cnc(OC)c(NS(=O)(=O)c4ccc(F)cc4F)c3)cc(O[C@@H]3CCOC3)c2n1 | 972 | 410 | 34.5 | 460 | 0.37 | 1.56 | 56 | > 10000 | > 10000 | 1.1 | 27 | > 10000 | 31.8 | > 10000 | 1300 | 2620 | 742 | 0.96 | 120 | 240 | IC50 [21]: > 10000 nM; IC50 [22]: 480 nM; IC50 [23]: 400 nM; AUC(0-t) [24]: 11400 ng·h/mL; bioavailability [25]: 78.4%; IC50 [26]: 0.93 nM; Tmax [27]: 1.8 min; Cmax [28]: 5390 ng/mL |

Reference: ChEMBL document CHEMBL4145625 (J Med Chem, 2018)
